Experimental data reported in patent EP2404925A1, “New all trans platinum (IV) complexes, their preparation and their use as antitumor agents” (Universidad Autónoma de Madrid, priority 2010, dated 2012).

Legend:
CCRF-CEM = test: In vitro antiproliferative assay (14C-thymidine uptake), CEM cells; assay type: cell-based, human; conditions: 72 h incubation, then 14C-thymidine uptake recorded 24 h later
Experimental: (§1) • CCRF-CEM is a human T-cell leukemia cell line (DSMZ ref ACC 240), established in 1964 from peripheral blood of young child bearing a terminal-stage ALL (Foley et al., Cancer 18: 522-529 (1965)). • NCI-H460 is a human epidermoïd lung tumour cell line, obtained from the NCI (NCI-Frederick. Tumor Bank). • MX1 is a human mammary carcinoma tumour, harbouring BRCA1 mutation, obtained from NCI (NCI-Frederick. Tumor Bank).
(§2) Tumour cells were grown in appropriate culture medium, either RPMI-1640 or DMEM, complemented with 10% calf-fetal serum and antibiotics.
(§3) Cell proliferation was evaluated by ^14C-thymidine uptake in DNA. Exponentially growing cells - from 5.10^3 to 10^4 per well in 180 µL culture medium - were introduced in a 96-wells microtitration Cytostar-T apparatus (GE Healthcare Bio-Sciences, Uppsala, Sweden). After 4 hours pre-incubation under CO2 atmosphere at 37°C, compounds were added in 10 µL volume. After incubation for an additional 72 hours period, 0.1 µCi ^14C-thymidine was added in each well, C^14 -thymidine uptake was recorded 24 hours later on a scintillation counter (Perkin-Elmer Life Sciences, Boston, MA, USA). IC50, defined as the dose which inhibits 50% of cell proliferation, were thus determined.

NCI-H460 = test: In vitro antiproliferative assay (14C-thymidine uptake), H460 cells; assay type: cell-based, human; conditions: 72 h incubation, then 14C-thymidine uptake recorded 24 h later
Experimental: as §1, §2, §3

MX1 tumor = test: In vivo antitumor evaluation in MX1 tumor model; set-up: species or system SCID mice; conditions: for SRI activity rating: day 10 to day 15 post tumor implantation
From the text: as §1
(§4) 7 to 8 weeks-old female SCID mice, obtained from Charles River (L'Arbresle, Lyon , France) were acclimated for at least 1 week previous experiment.
Animals, placed under normal light cycle, had then ad libitum access to food and water. MX1 cells, 10^7 cells per mouse initially grown in RPMI medium supplemented with 10% foetal-calf serum and antibiotics, were subcutaneously implanted in mice. When […] tumour volume was reached, fragments (2-3 mm diameter) were cut, placed in phosphate buffer (PBS), bilaterally implanted and further passaged in mice until tumour growth rate is stable, before starting the experiment. Tumors were measured with a caliper twice weekly until the tumor reached 2000 mm^3 or until the animal died (which ever come first). Tumor volumes were estimated from 2 dimensional measurements: Volume (in mm^3) = (a x b^2)/2, where a and b are the tumor length and width (mm) respectively. The variation from the baseline of the tumoral volume is calculated in the treated and control group. These values are used to calculate the median in the treated group (ΔT) and in the control group (ΔC). ΔT/ΔC, expressed as a percentage, is the ratio of median at a chosen day (the last day before it becomes necessary to sacrifice control mice owing to tumor size). ΔT/ΔC values can be translated into an activity rating, according to the Southern Research Institute (SRI) criteria:
(§5) When ΔT/ΔC values are negative, the percentage of regression is evaluated. A Partial regression (PR) is defined as a decrease in tumor volume greater than or equal to 50% of the tumor volume at start of treatment. A Complete regression (CR) is defined as a decrease in tumor volume below the limit of palpation (T=10mm^3). At the end of the study, the number of tumor free survivor (TFS) which correspond to mice without any detectable tumor is determined. Both drug-related deaths and maximum percent relative mean net body weight loss are also determined. A body weight loss (mean of group) of greater than 15% for more than 3 consecutive days or 20% weight loss for one day or 10% drug deaths are considered to indicate an excessively toxic dosage.

[1] = Toxicity (body weight loss, drug deaths) in the MX1 tumor model study; assay type: in vivo, SCID mice
Experimental: as §4, §5

[2] = i.v. daily during 5 days at 5 mg/kg
[3] = i.v. daily during 5 days at 5 mg/kg (25 mg/kg total dose)
[4] = i.v. daily during 5 days at 10 mg/kg
[5] = i.v. daily during 5 days at 10 mg/kg (50 mg/kg total dose)

Work on “Trans-trans-trans-{PtCl2(OH)2(isopropylamine)[(rac)-(endo)-norbornylamine]} [EXAMPLE 2]” yielded an IC50 (CCRF-CEM) of 25 nM and an IC50 (NCI-H460) of 255 nM.

`CC(=O)[O][Pt]([NH2])([Cl])([Cl])([NH]C1CCCCC1)[O]C(C)=O` [satraplatin, reference compound] gave an IC50 (CCRF-CEM) of 400 nM and an IC50 (NCI-H460) of 190 nM.

`O=C1[O][Pt]2([NH][C@@H]3CCCC[C@H]3[NH]2)[O]C1=O` [oxaliplatin, reference compound] showed an IC50 (CCRF-CEM) of 4000 nM and an IC50 (NCI-H460) of 2400 nM.

Molecule “Trans-trans-trans-{PtCl2(OH)2(dimethylamine)[(exo)-2- norbornylamine]} [EXAMPLE 3]” has an IC50 (CCRF-CEM) of 31 nM and an IC50 (NCI-H460) of 315 nM.

With “Trans-trans-trans-{PtCl2(OH)2(isopropylamine)[(rac)-(exo)-norbornylamine]} [EXAMPLE 1]” the IC50 (CCRF-CEM) was 53 nM, the IC50 (NCI-H460) was 532 nM and the “CR (complete regression)” value (MX1 tumor; [2]) was 100%. For the same molecule, the ΔT/ΔC (MX1 tumor; [3]) was < 0%, the SRI activity rating (MX1 tumor; [3]) was “highly active” and the “CR (complete regression)” value (MX1 tumor; [4]) was 100%. For the same molecule, the “TFS (tumor free survivor) at the end of the study” value (MX1 tumor; [4]) was 2, the ΔT/ΔC (MX1 tumor; [5]) was < 0% and the SRI activity rating (MX1 tumor; [5]) was “highly active”. The toxicity for mice ([1]; 20 mg/kg) was “toxic”, the deaths ([1]; 20 mg/kg, deaths on days 17, 19, 20, 21 and 24 (2 mice)) was 6/6 and the body weight loss [1, 2] was 4%. For the same molecule, the drug death [1, 2] was “no drug death”, the body weight loss [1, 4] was 12% and the drug death [1, 4] was “no drug death”. For the same molecule, the maximal tolerated dose ([1]; i.v., daily for 5 days schedule) was 10 mg/kg.

`N.N.[Cl][Pt][Cl]` [cisplatin, reference compound] showed an IC50 (CCRF-CEM) of 400 to 800 nM and an IC50 (NCI-H460) of 2600 to 4000 nM.
